Test results: patent US4336375A, “Cephalosporanic acid derivatives” (American Cyanamid Company, priority 1980, dated 1982)
Values after ≈ are worked out from the molar mass of the structure shown. Read-outs that look alike come from different tables or passages of the source.

Tests used:
[1] = test system: Pseudomonas aeruginosa G236; assay: In vitro MIC, agar dilution, Pseudomonas aeruginosa G236; assay type: cell-based; details: read-out: Minimal Inhibitory Concentration
Protocol: (§1) The in vitro activity of representative compounds of the present invention are given in the following Table I in terms of minimal inhibitory concentration. The test used was the standard agar dilution test using a Steers multiple inocula replicator and incubating at 35° C. for 18 hours in conventional nutrient agar.

[2] = test system: Pseudomonas aeruginosa PD05141; assay: In vitro MIC, agar dilution, Pseudomonas aeruginosa PD05141; assay type: cell-based; details: Pseudomonas aeruginosa PD05141; agar dilution, 35° C., 18 hours, nutrient agar; read-out: Minimal Inhibitory Concentration
Protocol: as §1

[3] = test system: Pseudomonas aeruginosa 12-4-4; assay: In vitro MIC, agar dilution, Pseudomonas aeruginosa 12-4-4; assay type: cell-based; details: read-out: Minimal Inhibitory Concentration
Protocol: as §1

[4] = test system: Pseudomonas aeruginosa UCS 76-13; assay: In vitro MIC, agar dilution, Pseudomonas aeruginosa UCS 76-13; assay type: cell-based; details: UCS7613; Pseudomonas aeruginosa UCS 76-13; agar dilution, 35° C., 18 hours, nutrient agar; read-out: Minimal Inhibitory Concentration
Protocol: as §1

[5] = test system: Klebsiella pneumoniae MA75-1; assay: In vitro MIC, agar dilution, Klebsiella pneumoniae MA75-1; assay type: cell-based; details: MA751; Klebsiella pneumoniae MA75-1; agar dilution, 35° C., 18 hours, nutrient agar; read-out: Minimal Inhibitory Concentration
Protocol: as §1

[6] = test system: Klebsiella pneumoniae W75-2; assay: In vitro MIC, agar dilution, Klebsiella pneumoniae W75-2; assay type: cell-based; details: W752; Klebsiella pneumoniae W75-2; agar dilution, 35° C., 18 hours, nutrient agar; read-out: Minimal Inhibitory Concentration
Protocol: as §1

[7] = test system: Klebsiella pneumoniae W75-4; assay: In vitro MIC, agar dilution, Klebsiella pneumoniae W75-4; assay type: cell-based; details: W754; Klebsiella pneumoniae W75-4; agar dilution, 35° C., 18 hours, nutrient agar; read-out: Minimal Inhibitory Concentration
Protocol: as §1

[8] = test system: Klebsiella pneumoniae UR76-1; assay: In vitro MIC, agar dilution, Klebsiella pneumoniae UR76-1; assay type: cell-based; details: UR761; Klebsiella pneumoniae UR76-1; agar dilution, 35° C., 18 hours, nutrient agar; read-out: Minimal Inhibitory Concentration
Protocol: as §1

Klebsiella pneumoniae AD = assay: In vitro MIC, agar dilution, Klebsiella pneumoniae AD; assay type: cell-based; details: Klebsiella pneumoniae AD; agar dilution, 35° C., 18 hours, nutrient agar; read-out: Minimal Inhibitory Concentration
Protocol: as §1

[9] = test system: Enterobacter aerogenes UR76-3; assay: In vitro MIC, agar dilution, Enterobacter aerogenes UR76-3; assay type: cell-based; details: Klebsiella aerogenes, UR763; Enterobacter aerogenes UR76-3; agar dilution, 35° C., 18 hours, nutrient agar; read-out: Minimal Inhibitory Concentration
Protocol: as §1

[10] = test system: Enterobacter cloacae MA75-1; assay: In vitro MIC, agar dilution, Enterobacter cloacae MA75-1; assay type: cell-based; details: read-out: Minimal Inhibitory Concentration
Protocol: as §1

[11] = test system: Enterobacter cloacae OSU75-2; assay: In vitro MIC, agar dilution, Enterobacter cloacae OSU75-2; assay type: cell-based; details: OSU752; Enterobacter cloacae OSU75-2; agar dilution, 35° C., 18 hours, nutrient agar; read-out: Minimal Inhibitory Concentration
Protocol: as §1

Serratia K101 = assay: In vitro MIC, agar dilution, Serratia K101; assay type: cell-based; details: Serratia K101; agar dilution, 35° C., 18 hours, nutrient agar; read-out: Minimal Inhibitory Concentration
Protocol: as §1

Serratia marcens K77-1 = assay: In vitro MIC, agar dilution, Serratia marcens K77-1; assay type: cell-based; details: K771; Serratia marcens K77-1; agar dilution, 35° C., 18 hours, nutrient agar; read-out: Minimal Inhibitory Concentration
Protocol: as §1

Serratia marcens QHC77-2 = assay: In vitro MIC, agar dilution, Serratia marcens QHC77-2; assay type: cell-based; details: QHC772; Serratia marcens QHC77-2; agar dilution, 35° C., 18 hours, nutrient agar; read-out: Minimal Inhibitory Concentration
Protocol: as §1

Proteus vulgaris N74-1 = assay: In vitro MIC, agar dilution, Proteus vulgaris N74-1; assay type: cell-based; details: N741, 35° C., 18 hours, nutrient agar, read-out: Minimal Inhibitory Concentration
Protocol: as §1

Proteus morganii K72 = assay: In vitro MIC, agar dilution, Proteus morganii K72; assay type: cell-based; details: Morganella morganii; Proteus morganii K72; agar dilution, 35° C., 18 hours, nutrient agar; read-out: Minimal Inhibitory Concentration
Protocol: as §1

Proteus rettgeri N76-1 = assay: In vitro MIC, agar dilution, Proteus rettgeri N76-1; assay type: cell-based; details: Providencia rettgeri, N761; Proteus rettgeri N76-1; agar dilution, 35° C., 18 hours, nutrient agar; read-out: Minimal Inhibitory Concentration
Protocol: as §1

[12] = test system: Escherichia coli ESS22-31; assay: In vitro MIC, agar dilution, Escherichia coli ESS22-31; assay type: cell-based; details: read-out: Minimal Inhibitory Concentration
Protocol: as §1

Escherichia coli W75-1 = assay: In vitro MIC, agar dilution, Escherichia coli W75-1; assay type: cell-based; details: W751, 35° C., 18 hours, nutrient agar, read-out: Minimal Inhibitory Concentration
Protocol: as §1

Escherichia coli OSU75-1 = assay: In vitro MIC, agar dilution, Escherichia coli OSU75-1; assay type: cell-based; details: OSU751, 35° C., 18 hours, nutrient agar, read-out: Minimal Inhibitory Concentration
Protocol: as §1

Escherichia coli 311 [13] = assay: In vitro MIC, agar dilution, Escherichia coli 311; assay type: cell-based; details: 35° C., 18 hours, nutrient agar, read-out: Minimal Inhibitory Concentration
Protocol: as §1

[14] = test system: Staphylococcus aureus Q74-1; assay: In vitro MIC, agar dilution, Staphylococcus aureus Q74-1; assay type: cell-based; details: Q741; Staphylococcus aureus Q74-1; agar dilution, 35° C., 18 hours, nutrient agar; read-out: Minimal Inhibitory Concentration
Protocol: as §1

[15] = test system: Staphylococcus aureus Q74-6; assay: In vitro MIC, agar dilution, Staphylococcus aureus Q74-6; assay type: cell-based; details: Q746; Staphylococcus aureus Q74-6; agar dilution, 35° C., 18 hours, nutrient agar; read-out: Minimal Inhibitory Concentration
Protocol: as §1

Enterococcus SM77-15 = assay: In vitro MIC, agar dilution, Enterococcus SM77-15; assay type: cell-based; details: SM7715; Enterococcus SM77-15; agar dilution, 35° C., 18 hours, nutrient agar; read-out: Minimal Inhibitory Concentration
Protocol: as §1

Escherichia coli 311 [16] = assay: In vivo systemic lethal infection of mice, Escherichia coli 311; design: species or system Charles River CD-1 mice; details: CD-1 mice
Source text: As shown in Table II these compounds show high in vivo antibacterial activity against Escherichia coli 311 and Klebsiella pneumoniae W-75-2 when administered by a single subcutaneous dose to groups of Charles River CD-1 mice, weighing about 20 g. each. The mice are infected intraperitoneally with a lethal dose of these bacteria.

[17] = Pseudomonas aeruginosa G236, agar dilution, 35° C., 18 hours, nutrient agar
[18] = MA751, Enterobacter cloacae MA75-1, agar dilution, 35° C., 18 hours, nutrient agar
[19] = ESS2231, Escherichia coli ESS22-31, agar dilution, 35° C., 18 hours, nutrient agar
[20] = single subcutaneous dose 1 mg./kg.
[21] = single subcutaneous dose 2 mg./kg.
[22] = single subcutaneous dose 4 mg./kg.
[23] = single subcutaneous dose 8 mg./kg.
[24] = 1244, Pseudomonas aeruginosa 12-4-4, agar dilution, 35° C., 18 hours, nutrient agar
[25] = Escherichia coli, ESS2231, 18 h

SMILES	MIC [2] [µg/mL]	MIC [4] [µg/mL]	MIC [5] [µg/mL]	MIC [6] [µg/mL]	MIC [7] [µg/mL]	MIC [8] [µg/mL]	MIC (Klebsiella pneumoniae AD) [µg/mL]	MIC [9] [µg/mL]	MIC [11] [µg/mL]	MIC (Serratia K101) [µg/mL]	MIC (Serratia marcens K77-1) [µg/mL]	MIC (Serratia marcens QHC77-2) [µg/mL]	MIC (Proteus vulgaris N74-1) [µg/mL]	MIC (Proteus morganii K72) [µg/mL]	MIC (Proteus rettgeri N76-1) [µg/mL]	MIC (Escherichia coli W75-1) [µg/mL]	MIC (Escherichia coli OSU75-1) [µg/mL]	MIC (Escherichia coli 311 [13]) [µg/mL]	MIC [14] [µg/mL]	MIC [15] [µg/mL]	other results
CO/N=C(\C(=O)NC1C(=O)N2C(C(=O)O)=C(CSc3nnc(-n4nc(C)cc4C)n3N)CSC12)c1csc(N)n1 (stereo not drawn) [Compound II, 7-[2-(Syn-methoxyimino)-2-(2-aminothiazol-4-yl)acetamido]-3-[4-amino-5-(1-[3,5-dimethyl]pyrazolyl)-1,2,4-triazol-3-ylthiomethyl]-3-cephem-4-carboxylicacid]	> 128	> 128	≤ 0.12	0.25 (≈ 0.413 µM)	0.25 (≈ 0.413 µM)	0.5 (≈ 0.826 µM)	≤ 0.12	≤ 0.12	2 (≈ 3.3 µM)	1 (≈ 1.65 µM)	1 (≈ 1.65 µM)	2 (≈ 3.3 µM)	0.5 (≈ 0.826 µM)	0.5 (≈ 0.826 µM)	0.5 (≈ 0.826 µM)	0.25 (≈ 0.413 µM)	0.25 (≈ 0.413 µM)	≤ 0.12	2 (≈ 3.3 µM)	64 (≈ 106 µM)	MIC [1, 17]: 128 µg/mL (≈ 211 µM); MIC ([3]; Pseudomonas aeruginosa, 1244, 18 h): 64 µg/mL (≈ 106 µM); MIC [10, 18]: 128 µg/mL (≈ 211 µM); MIC [12, 19]: ≤ 0.12 µg/mL; MIC (Enterococcus SM77-15): > 128 µg/mL; Alive/Total Mice Tested, 7 Days After Infection (Escherichia coli 311 [16]; [20]): 0/5; Alive/Total Mice Tested, 7 Days After Infection (Escherichia coli 311 [16]; [21]): 5/5; Alive/Total Mice Tested, 7 Days After Infection (Escherichia coli 311 [16]; [22]): 5/5; Alive/Total Mice Tested, 7 Days After Infection (Escherichia coli 311 [16]; [23]): 5/5
N[C@@H](C(=O)NC1C(=O)N2C(C(=O)O)=C(CSc3n[nH]c(-n4cccn4)n3)CS[C@H]12)c1ccccc1.O=C(O)C(F)(F)F (stereo partly drawn) [Compound IX, 7-(D-2-Amino-2-phenylacetamido)-3-[5-(1-pyrazolyl)-1,2,4-triazol-3-ylthiomethyl]-3-cephem-4-carboxylic acid, trifluoroacetate salt]	> 128	> 128	16	32	32	> 128	8	16	> 128	> 128	> 128	> 128	> 128	> 128	> 128	16	16	16	4	1	MIC [1, 17]: > 128 µg/mL; MIC [3, 24]: > 128 µg/mL; MIC [10, 18]: > 128 µg/mL; MIC [12, 25]: ≤ 0.12 µg/mL; MIC (Enterococcus SM77-15): > 128 µg/mL
Cc1nnc(SCC2=C(C(=O)O)N3C(=O)[C@@H](NC(=O)Cn4cnnn4)[C@H]3SC2)s1 [Compound XII, Cefazolin, reference compound]	> 128	> 128	1 (≈ 2.2 µM)	1 (≈ 2.2 µM)	8 (≈ 17.6 µM)	64 (≈ 141 µM)	0.5 (≈ 1.1 µM)	2 (≈ 4.4 µM)	> 128	> 128	> 128	> 128	> 128	> 128	> 128	1 (≈ 2.2 µM)	1 (≈ 2.2 µM)	0.5 (≈ 1.1 µM)	0.12 (≈ 0.264 µM)	≤ 0.06	MIC [1, 17]: > 128 µg/mL; MIC [3, 24]: > 128 µg/mL; MIC [10, 18]: > 128 µg/mL; MIC [12, 25]: 0.25 µg/mL (≈ 0.55 µM); MIC (Enterococcus SM77-15): 16 µg/mL (≈ 35.2 µM)
CO/N=C(\C(=O)NC1C(=O)N2C(C(=O)O)=C(CSc3nnc(-n4nc(C)cc4-c4ccccc4)n3N)CSC12)c1csc(N)n1 (stereo not drawn) [Compound III, 7-[2-(Syn-methoxyimino)-2-(2-aminothiazol-4-yl)acetamido]-3-[4-amino-5-(1-[3-methyl-5-phenyl]pyrazolyl)-1,2,4-triazol-3-ylthiomethyl]-3-cephem-4-carboxylic acid]	> 128	> 128	0.5 (≈ 0.749 µM)	1 (≈ 1.5 µM)	1 (≈ 1.5 µM)	4 (≈ 5.99 µM)	0.5 (≈ 0.749 µM)	0.25 (≈ 0.374 µM)	4 (≈ 5.99 µM)	4 (≈ 5.99 µM)	4 (≈ 5.99 µM)	8 (≈ 12 µM)	1 (≈ 1.5 µM)	2 (≈ 3 µM)	1 (≈ 1.5 µM)	1 (≈ 1.5 µM)	1 (≈ 1.5 µM)	0.25 (≈ 0.374 µM)	2 (≈ 3 µM)	32 (≈ 47.9 µM)	MIC ([1]; Pseudomonas aeruginosa, G236, 18 h): > 128 µg/mL; MIC [3, 24]: 128 µg/mL (≈ 192 µM); MIC [10, 18]: 128 µg/mL (≈ 192 µM); MIC [12, 19]: ≤ 0.12 µg/mL; MIC (Enterococcus SM77-15): > 128 µg/mL; Alive/Total Mice Tested, 7 Days After Infection (Escherichia coli 311 [16]; [20]): 0/5; Alive/Total Mice Tested, 7 Days After Infection (Escherichia coli 311 [16]; [21]): 0/5; Alive/Total Mice Tested, 7 Days After Infection (Escherichia coli 311 [16]; [22]): 5/5; Alive/Total Mice Tested, 7 Days After Infection (Escherichia coli 311 [16]; [23]): 5/5
CCN1CCN(C(=O)NC(C(=O)NC2C(=O)N3C(C(=O)O)=C(CSc4n[nH]c(-n5cccn5)n4)CS[C@H]23)c2ccc(O)cc2)C(=O)C1=O (stereo partly shown) [Compound VI, 7-[2-(4-Ethyl-2,3-dioxo-1-piperazinecarboxamido)-2-(p-hydroxyphenyl)acetamido]-3-[5-(1-pyrazolyl)-1,2,4-triazol-3-ylthiomethyl]-3-cephem-4-carboxylic acid]	64 (≈ 91.9 µM)	64 (≈ 91.9 µM)	2 (≈ 2.87 µM)	4 (≈ 5.74 µM)	32 (≈ 45.9 µM)	16 (≈ 23 µM)	0.5 (≈ 0.718 µM)	0.5 (≈ 0.718 µM)	64 (≈ 91.9 µM)	128 (≈ 184 µM)	> 128	> 128	16 (≈ 23 µM)	32 (≈ 45.9 µM)	16 (≈ 23 µM)	2 (≈ 2.87 µM)	2 (≈ 2.87 µM)	1 (≈ 1.44 µM)	4 (≈ 5.74 µM)	8 (≈ 11.5 µM)	MIC [1, 17]: 32 µg/mL (≈ 45.9 µM); MIC [3, 24]: 16 µg/mL (≈ 23 µM); MIC ([10]; Enterobacter cloacae, MA751, 18 h): > 128 µg/mL; MIC [12, 19]: ≤ 0.12 µg/mL; MIC (Enterococcus SM77-15): > 128 µg/mL
